In patent publication US20120302546A1, “NOVEL SULFAMIDES EXHIBITING NEUROPROTECTIVE ACTION AND METHODS FOR USE THEREOF” (FOX CHASE CHEMICAL DIVERSITY CENTER, INC., priority 2010, published 2012):

Experiments:
[1] = test system: Hippocampal Cultures; assay: Neuroprotection from hydrogen peroxide (oxidative stress), CFDA assay; format: cell-based; conditions: Rattus norvegicus, 10 μM Hydrogen Peroxide, read-out: NP from HP CFDA EC50
Source text: (§1) Cell cultures: All compounds are screened with dissociated hippocampal cultures derived from embryonic day 18 rats as the primary test system. With this preparation, primary neurons are used to test for toxicity as well as neuroprotection in a highly relevant experimental system to epilepsy. In brief, hippocampal tissue are obtained commercially through Brain Bits (Springfield, Ill.) and cultures prepared as previously described by Brewer (Brewer, G. J. Serum-free B27/neurobasal medium supports differentiated growth of neurons from the striatum, substantia nigra, septum, cerebral cortex, cerebellum and dentate gyms, J. Neurosci. Res. 1995, 42, 674-683.). The hippocampal neurons are platted at low density (10,000 cell/well) in a 96-well format and maintained in serum-free medium consisting of Neurobasal Medium supplemented with B27 and GlutaMAX (Gibco). Pre-coated poly-L-lysine coated plates are used because of the preferential adherence and survival of hippocampal neurons on this matrix support.
(§2) Potent neuroprotection is the distinguishing characteristic that separates this program's anticonvulsants from all other commercial drugs for epilepsy. The experimental details and the rationale for the implemented assays are essential in differentiating these compounds from that of others. The central objective of all neuroprotective assays was their relevancy to excitotoxicity and oxidative stress related to epilepsy. Both the amount of glutamate and hydrogen peroxide used in the assays, as well as the time of treatment and duration of the experiment, were designed to be relevant to epilepsy. Further, all time parameters employed in these studies were empirically determined to be within the limits of reversible toxic events, yet using amounts of glutamate and hydrogen peroxide that were relevant to the disease. In regard to glutamate toxicity, a critical feature was the duration of treatment of the hippocampal neurons. The rational for using a short 5 min treatment with glutamate was based on the observation of Randall and Thayer (Randall, R. D.; Thayer, S. A. Glutamate-induced calcium transient triggers calcium overload and neurotoxicity in rat hippocampal neurons, J. Neurosci. 1992, 12, 1882-1895). […] The rationale is that this intense burst of glutamate and resulting calcium overload is relevant to seizures and therefore was important data to capture in the screening assay. The amount of glutamate (30 μM) employed in our screening was based on the basal levels of glutamate observed in microdialysis measurements of hippocampus from epileptogenic patients (Cavus et al. Decreased hippocampal volume on MRI is associated with increased extracellular glutamate in epilepsy patients, Epilepsia, 2008, 49, 1358-1366.). In regard to hydrogen peroxide, the amount employed (10 μM) was detected in the hippocampus of rats after kainate-induced status epilepticus (Jarrett et. al., Mitochondrial DNA damage and impaired base excision repair during epileptogenesis, Neurobiol. Dis. 2008, 30, 130-138). To produce neural damage and death with these amounts of glutamate and hydrogen peroxide, the cultures were changed to a medium with significant depletion of antioxidant components in the defined medium supplement B-27 just prior to treatment with the compounds. This was performed to obtain a significant and reproducible toxic signal in the hippocampal neurons and because loss of antioxidant control may be a component of epileptogenesis (Waldbaum and Patel, Mitochondria, oxidative stress and temporal lobe epilepsy, Epilepsy Res. 2010 88, 23-45.; Wu et al., Mitochondrial DNA mutation-elicited oxidative stress, oxidative damage, and altered gene expression in cultured cells of patients with MERRF syndrome, Mol. Neurobiol. 2010, 41, 256-266.). Neuroprotection studies with hydrogen peroxide were conducted with cultures that were between day 12 and day 18. Studies of neuroprotection glutamate were conducted between day 19 and day 22. […]

[2] = test system: Hippocampal Cultures; assay: Neuroprotection from hydrogen peroxide (oxidative stress), propidium iodide assay; format: cell-based; conditions: Rattus norvegicus, 10 μM Hydrogen Peroxide, read-out: NP from HP PI EC50
Source text: as §1, §2

[3] = test system: Hippocampal Cultures; assay: Neuroprotection from glutamate excitotoxicity, CFDA neuronal viability assay; format: cell-based, rat; conditions: for EC50: Rattus norvegicus, 30 μM glutamate, Hippocampal Cultures, read-out: NP from Glutamate CFDA EC50
Experimental: Pharmacology: Hydroxyethyl sulfamides attenuate glutamate-mediated neuronal viability. As an example, compound II, shown above, is shown to attenuate a decrease in carboxyfluorescein diacetate (CFDA) produced by acute treatment with glutamate in FIG. 1. For these studies, day 20 hippocampal cultures derived from E18 rats were treated for 5 min with 30 μM glutamate. Following removal of the glutamate, cultures were treated with various concentrations of compound II and the CFDA neuronal viability assay was conducted 24 hours after the initiation of treatment. The dotted line labeled “control” represents the mean CFDA value for control culture receiving no treatment. The dotted line labeled “carisbamate” represents the mean CFDA value for the reference compound carisbamate, a putative neuroprotective, anticonvulsant. For the CFDA measurements, RFU is the abbreviation for relative fluorescent units. The reference anticonvulsant compound carisbamate was tested at 100 μM, as lower concentrations were ineffective.
as §1
(§3) Carboxyfluorescein (CFDA) was used a vital stain for all cell toxicity and neuroprotection studies. With the use of the CytoFluor fluorimeter, the CFDA assay was employed to assess the viability of neurons. CFDA is a dye that becomes fluorescent upon cell entry and cleavage by cytosolic esterases (Petroski, R. E.; Geller, H. M Selective labeling of embryonic neurons cultures on astrocyte monolayers with 5(6)-carboxyfluorescein diacetate (CFDA). J. Neurosci. Methods 1994, 52, 23-32.). Neuronal specificity is obtained relative to astrocytes because the cleaved dye is extruded extracellularly by glia with time, while dye in neurons remains intracellular. […] To further assess the culture responses, a propidium iodide method was used as previously described (Sarafian, T. A.; Kouyoumjian, S.; Tashkin, D.; Roth, M. D. Synergistic cytotoxicity of 9-tetrahydrocannabianol and butylated hydroxyanisole, Tox. Letters, 2002. 133, 171-179.) to measure the number of dead cells. Propidium iodide becomes fluorescent when binding to the DNA of dead cells. Cultures were treated on day 2 with the test agent and then the two assays were conducted after a […] test period. For all assays, a 96-well format was used. For the screen, log concentration-effect studies were conducted from 10 nM to 1 mM with 8 replications. The duration of the test period was five days. Cultures were given a complete change of medium prior to the initiation of the treatment period.
Potent neuroprotection is the distinguishing characteristic that separates this program's anticonvulsants from all other commercial drugs for epilepsy. The experimental details and the rationale for the implemented assays are essential in differentiating these compounds from that of others. The central objective of all neuroprotective assays was their relevancy to excitotoxicity and oxidative stress related to epilepsy. […]

[4] = test system: Hippocampal Cultures; assay: Neuroprotection from glutamate excitotoxicity, propidium iodide cell death assay; format: cell-based, rat; conditions: for EC50: Rattus norvegicus, Hippocampal Cultures, read-out: NP from Glutamate PI EC50
Experimental: Hydroxyethyl sulfamides attenuate glutamate-mediated cell death: As an example of HES compounds that prevent cell death associated with glutamate, compound II is shown to attenuate an increase in propidium iodide (PI) produced by acute treatment with glutamate in FIG. 4. For these studies, day 20 hippocampal cultures derived from E18 rats were treated for 5 min with 30 μM glutamate. Following removal of the glutamate, cultures were treated with various concentrations of compound II and the propidium iodide method for measuring cell death was conducted 24 hours after the initiation of treatment. The dotted line labeled “control” represents the mean PI value for control culture receiving no treatment. The dotted line labeled “carisbamate” represents the mean PI value for the reference compound carisbamate, a putative neuroprotective anticonvulsant. The amount of carisbamate used was 100 μM and this concentration had the maximally observed efficacy for this compound. RFU is an abbreviation for relative fluorescent units. Day 15 is the number of days that the cultures were maintained in vitro before conducting the experiment.
as §1, §3
Potent neuroprotection is the distinguishing characteristic that separates this program's anticonvulsants from all other commercial drugs for epilepsy. The experimental details and the rationale for the implemented assays are essential in differentiating these compounds from that of others. […]

[5] = day 20 hippocampal cultures, 5 min 30 μM glutamate, CFDA assay 24 hours after initiation of treatment (FIG. 1-3)

NS(=O)(=O)NCC(O)c1ccccc1F (stereo in doubt) [Example 10, (S)-2-(2-Fluorophenyl)-2-hydroxyethylsulfamide]
EC50 [1]: 1 µM
EC50 [2]: 0.1 µM
EC50 [3]: 300 µM
EC50 ([4]; 30 μM glutamate): 0.1 µM

NS(=O)(=O)NCC(O)c1ccccc1F (stereo in doubt) [Example 11, (R)-3-(2-Fluorophenyl)-2-hydroxyethylsulfamide]
EC50 [1]: 300 µM
EC50 [2]: 300 µM

NS(=O)(=O)NCC(O)c1ccccc1Cl (stereo not drawn) [Example 1, 2-(2-Chlorophenyl)-2-hydroxyethylsulfamide]
EC50 [3]: 30 µM
EC50 ([4]; 30 μM glutamate): 100 µM

NS(=O)(=O)NCC(O)c1cccc(Cl)c1 (stereo not drawn) [Example 2, 2-(3-Chlorophenyl)-2-hydroxyethylsulfamide]
EC50 [1]: 100 µM
EC50 [2]: 100 µM
EC50 [3]: > 300 µM
EC50 ([4]; 30 μM glutamate): > 300 µM

NS(=O)(=O)NCC(O)c1ccsc1 (stereo not drawn) [Example 3, 2-(thiophen-3-yl)-2-hydroxyethylsulfamide]
EC50 [1]: 30 µM
EC50 [2]: 30 µM
EC50 [3]: > 300 µM
EC50 ([4]; 30 μM glutamate): 30 µM

NS(=O)(=O)NCC(O)c1cc2ccccc2s1 (stereo not drawn) [Example 4, 2-(benzothiophen-2-yl)-2-hydroxyethylsulfamide]
EC50 [1]: 100 µM
EC50 [2]: 30 µM
EC50 [3]: 100 µM
EC50 ([4]; 30 μM glutamate): 10 µM

NS(=O)(=O)NCC(O)c1cc(Cl)ccc1Cl (stereo not drawn) [Example 5, 2-(2,5-dichlorophenyl)-2-hydroxyethylsulfamide]
EC50 [1]: > 300 µM
EC50 [2]: > 300 µM
EC50 [3]: > 300 µM
EC50 ([4]; 30 μM glutamate): 30 µM

NS(=O)(=O)NCC(O)c1ccccc1F (stereo not drawn) [Example 6, 2-(2-fluorophenyl)-2-hydroxyethylsulfamide]
EC50 [1]: 10 µM
EC50 [2]: 0.01 µM
EC50 [3]: 100 µM
EC50 ([4]; 30 μM glutamate): 10 µM

NS(=O)(=O)NCC(O)c1csc2ccccc12 (stereo not drawn) [Example 7, 2-(benzothiophen-3-yl)-2-hydroxyethylsulfamide]
EC50 [3]: 30 µM
EC50 ([4]; 30 μM glutamate): > 300 µM

CC(O)(CNS(N)(=O)=O)c1ccccc1Cl (stereo not drawn) [Example 8, 2-(2-chlorophenyl)-2-methyl-2-hydroxyethylsulfamide]
EC50 [1]: 100 µM
EC50 [2]: 0.1 µM
EC50 [3]: > 300 µM
EC50 ([4]; 30 μM glutamate): 300 µM

NS(=O)(=O)N1CC(O)(c2csc3ccccc23)C1 [Example 9, 3-Benzo[b]thiophen-3-yl-3-hydroxy-azetidine-1-sulfonamide]
EC50 [1]: > 300 µM
EC50 [2]: > 300 µM
EC50 [3]: 0.1 µM
EC50 ([4]; 30 μM glutamate): 1 µM

NS(=O)(=O)NC[C@@H](O)c1ccccc1Cl [Example 12, (S)-2-(2-Chlorophenyl)-2-hydroxyethylsulfamide]
EC50 [1]: 30 µM
EC50 [2]: > 300 µM
EC50 [3]: 30 µM
EC50 ([4]; 30 μM glutamate): 10 µM

NS(=O)(=O)NC[C@H](O)c1ccccc1Cl [Example 13, (R)-2-(2-Chlorophenyl)-2-hydroxyethylsulfamide]
EC50 [1]: 300 µM
EC50 [2]: > 300 µM
EC50 [3]: 0.01 µM
EC50 ([4]; 30 μM glutamate): 10 µM

NC(=O)OC[C@@H](O)c1ccccc1Cl [carisbamate, reference compound]
effect on glutamate-mediated decrease in neuronal viability (CFDA) ([3]; concentrations lower than 100 μM): ineffective
concentration with the maximally observed efficacy (propidium iodide) ([4]; hippocampal cultures, 30 μM glutamate): 100 µM

NS(=O)(=O)NCC(O)c1ccccc1Cl (stereo not drawn) [compound II]
effect on glutamate-mediated decrease in neuronal viability (CFDA) [3, 5]: attenuate
effect on glutamate-mediated increase in cell death (propidium iodide) ([4]; day 20 hippocampal cultures, 5 min 30 μM glutamate, PI 24 hours after initiation of treatment (FIG. 4)): attenuate

NS(=O)(=O)NCC(O)c1csc2ccccc12 (stereo not drawn) [compound IV]
effect on glutamate-mediated decrease in neuronal viability (CFDA) [3, 5]: efficacious
